In test [1] the target is T1, MAO B (Homo sapiens, UniProt P27338).
T1 sequence (P27338 1-520): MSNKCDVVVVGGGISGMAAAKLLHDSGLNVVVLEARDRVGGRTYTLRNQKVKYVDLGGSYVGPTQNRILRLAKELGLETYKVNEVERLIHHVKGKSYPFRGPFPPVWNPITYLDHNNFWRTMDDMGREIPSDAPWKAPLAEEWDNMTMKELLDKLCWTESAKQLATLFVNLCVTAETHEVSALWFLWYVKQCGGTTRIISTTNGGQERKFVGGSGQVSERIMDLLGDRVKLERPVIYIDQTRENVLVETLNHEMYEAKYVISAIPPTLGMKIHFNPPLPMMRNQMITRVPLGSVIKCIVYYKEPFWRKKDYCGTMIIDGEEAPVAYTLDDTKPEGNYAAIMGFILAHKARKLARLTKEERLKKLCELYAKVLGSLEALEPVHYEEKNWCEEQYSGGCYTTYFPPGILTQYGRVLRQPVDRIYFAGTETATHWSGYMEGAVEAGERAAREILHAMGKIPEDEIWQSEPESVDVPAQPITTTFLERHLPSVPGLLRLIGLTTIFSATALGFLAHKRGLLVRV
Nature of the test: MAO B inhibitory activity of Don Julio Añejo or 40% ethanol spiked with terpenes. Format: biochemical. The settings on record: terpene at 0.5% (v/v) in tequila (40% ABV) and in 40% ethanol. Here is the method:
(§1) The effect terpenes on MAOI activity in tequila was evaluated in the experiment from Table 3. Terpenes were added to 40% ethanol and tequila (40% ABV) at 0.5%. (v/v) and assayed for MAO inhibitory activity.

Test [2] has as its target T2, MAO A (Homo sapiens, UniProt P21397).
T2 sequence (P21397 1-527): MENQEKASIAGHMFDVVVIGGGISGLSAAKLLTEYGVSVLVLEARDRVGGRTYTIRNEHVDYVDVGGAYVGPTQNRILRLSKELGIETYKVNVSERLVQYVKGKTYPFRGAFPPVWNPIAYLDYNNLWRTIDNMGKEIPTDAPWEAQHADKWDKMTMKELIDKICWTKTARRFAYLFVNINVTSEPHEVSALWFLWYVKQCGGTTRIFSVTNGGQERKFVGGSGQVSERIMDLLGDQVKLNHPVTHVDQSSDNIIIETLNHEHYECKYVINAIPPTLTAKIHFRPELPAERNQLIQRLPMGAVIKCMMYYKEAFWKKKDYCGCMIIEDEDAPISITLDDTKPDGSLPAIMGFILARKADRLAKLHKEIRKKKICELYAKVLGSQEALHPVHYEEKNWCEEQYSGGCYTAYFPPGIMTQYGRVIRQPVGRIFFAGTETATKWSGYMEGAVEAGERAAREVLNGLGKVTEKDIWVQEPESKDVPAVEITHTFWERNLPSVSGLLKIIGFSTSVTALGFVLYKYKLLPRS
The experiment in a line: MAO A inhibitory activity of Don Julio Añejo or 40% ethanol spiked with terpenes. The settings on record: terpene at 0.5% (v/v) in tequila (40% ABV) and in 40% ethanol. Format: biochemical. As for the experimental part: as §1

In the case of `C=C(C)[C@@H]1CCC2=CCC[C@@H](C)[C@]2(C)C1` [valencene], in test [1], the “Δ % Inhibition MAO B (DJA + terpene) − (ETOH + terpene)” value is on record as 20%. For the same compound, the “Δ % Inhibition MAO A (DJA + terpene) − (ETOH + terpene)” value in test [2] is listed as 9%.
For Geramol, in that order: 9% and 4%.

Values taken from patent US20240368506A1, “Manufacturing a Non-Alcoholic Distilled Spirit and Functional Ingredient” (priority 2022, published 2024).
